Assay results: patent publication US10828301B2, “2,4-pyrimidinediamine compounds and their uses” (Rigel Pharmaceuticals, Inc, priority 2002, dated 2020)

Test: Sheep model of allergic asthma (Ascaris suum challenge)
Type: in vivo
Conditions: administered in an aqueous suspension
Protocol: Sheep develop bronchoconstriction within minutes of exposure to inhaled antigen (Ascaris suum), with maximal airflow obstruction during the early allergic response (EAR). Release of preformed mast cell mediators is likely responsible for this early phase of airflow obstruction. […] In the sheep, AHR develops a few hours following antigen challenge, and can persist for up to 2 weeks.
In the sheep model of allergic asthma, sheep are administered aerosols of test article via an endotracheal tube, followed by an aerosol challenge with antigen extracted from the roundworm, Ascaris suum, to which the sheep are naturally allergic. Allergen challenge leads to direct bronchoconstriction (both EAR and LAR) and a persistent non-specific AHR. These three characteristics are similar to those seen in human allergic asthmatics. The activity of the test agent is determined by changes in the lung resistance (RL), which is calculated from measurements of transpulmonary pressure, flow, and respiratory volume. […] The LAR is a less pronounced increase in RL, which starts approximately 5-6 hours following allergen challenge and is resolved by 8 hours post-challenge. Twenty-four hours after the challenge, a dose response to carbachol is measured to determine the AHR, which is expressed as the dose of carbachol required to increase RL by 400% over baseline. […]

**Q.** With Oc1cccc(Nc2ncc(F)c(Nc3cccc(O)c3)n2)c1 [Compound R921218, N2,N4-Bis(3-hydroxyphenyl)-5-fluoro-2,4-pyrimidinediamine] as the compound, how does the “effect on the EAR (in words)” value read?
**A.** failed to inhibit the EAR
